Consider 26 compounds from PubChem BioAssay (NCI).

Holding throughout (assay): inhibition of tumour cell growth, NCI panel, 48 h
Assay [1] relates to HCT-116 colon.
In assay [2] the test system is BT-549 breast.
The test system of assay [3] is SK-MEL-28 melanoma.
Assay [4] relates to OVCAR-4 ovarian.
In assay [5] the test system is EKVX NSCLC.
Assay [6] has as its system HOP-62 NSCLC.
Assay [7] has as its system IGROV1 ovarian.
Assay [8] has as its system CAKI-1 renal.
Assay [9] concerns COLO 205 colon.
The test system of assay [10] is A549 NSCLC.

Each structure is given as a SMILES string.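 Results reflect a 48-hour exposure of cells in 96-well plates to compound at five concentrations. GI50 = concentration required for 50% inhibition of growth. TGI: concentration producing complete growth inhibition.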 Where a SMILES comes first, the peptide text is derived from it. [ ]: non-standard residue; d: D form. The star is where a group is joined. AllylGly = C=CC[CH](N)C(=O)O; Boc = CC(C)(C)OC(=O)*; OtBu = CC(C)(C)O* Some results are limits rather than exact numbers.

On to `CCc1n[nH]c(=O)n1/N=C/c1ccccc1Cl`, for which the TGI in assay [1] was > 100 µM; in assay [2], > 100 µM; in assay [3], > 100 µM; in assay [4], > 100 µM; in assay [5] it was 29.4 µM; in [6], > 100 µM. The TGI in assay [7], in assay [8], in [9] and in [10] was > 100 µM throughout.

In the case of `CCCCC(=O)Nc1ccc2cc(C(=O)OC)c(ON3C(=O)c4ccccc4C3=O)nc2n1`, the TGI in [1] is 45.9 µM; in [2], > 100 µM; in assay [3], 53.5 µM; in assay [4] it was 81.2 µM; in assay [5], > 100 µM; in assay [6], 37.6 µM. Moreover, the TGI in assay [7] was 41 µM; in assay [8] it was 52.4 µM; in assay [9], > 100 µM; in assay [10], > 100 µM.

Regarding `CC(C)C1(C)N=C(C(F)(F)F)c2cc(C(=O)C(F)(F)F)c3ccccc3c2N1` (stereo not given), the TGI in assay [1] was 11.8 µM; in [2] it was 10.7 µM; in [3], 20.8 µM; in assay [4], 18.9 µM; in assay [5], 18.4 µM; in assay [6], 18.5 µM. The TGI in assay [7] worked out at 3.28 µM; in assay [8], 9.74 µM; in assay [9], 15.8 µM; in assay [10], 23.5 µM.

For `CCCCCCOc1ccc(C(=O)NOCc2ccccc2)cc1`, the TGI in assay [1], in [2], in assay [3], in [4], in assay [5] and in [6] was > 100 µM in each case. For the same compound, the TGI in assay [7], in assay [8], in assay [9] and in assay [10] was > 100 µM in each case.

With `CCOc1ccc(/C(O)=C/c2nc3ccccc3nc2/C=C(\O)c2ccc(OCC)cc2)cc1`, the TGI in assay [1], in assay [2], in [3], in assay [4], in assay [5] and in assay [6] was > 100 µM each time. In addition, the TGI in [7], in assay [8], in [9] and in assay [10] was > 100 µM in each case.

In the case of `COCC1CCCN1c1ccc(/C=C(/C#N)C(N)=S)cc1` (stereo not given), the GI50 in assay [1], in [2], in assay [3], in [4], in assay [5] and in assay [6] was > 100 µM throughout. Moreover, the GI50 in assay [8], in assay [9] and in assay [10] was > 100 µM each time. Moreover, the TGI in [1], in assay [2], in [3], in assay [4], in [5] and in assay [6] was > 100 µM throughout. Further, the TGI in assay [8], in assay [9] and in assay [10] was > 100 µM each time.

As for `N#Cc1c(-c2ccc([N+](=O)[O-])cc2)cc(-c2ccc(Nc3ccnc4cc(C(F)(F)F)ccc34)cc2)nc1N`, the TGI in assay [1] was 27.5 µM; in assay [2], > 75.6 µM; in assay [3], 59.8 µM; in assay [4], 28.1 µM; in assay [5], > 93.3 µM; in assay [6] it was 51.3 µM. For the same compound, the TGI in assay [7] is 29 µM; in assay [8] it was 41.3 µM; in assay [9], > 75.9 µM; in assay [10], 26.8 µM.

For the compound `C=CCC(NC(=O)C(CC(=O)OC(C)(C)C)NC(=O)OC(C)(C)C)C(=O)OC` (stereo not given) (Boc-Asp(OtBu)-[AllylGly]-OMe; configuration not given here), the TGI in [1], in assay [2], in assay [3], in [4], in assay [5] and in [6] was > 100 µM each time. Moreover, the TGI in assay [7] was > 100 µM; in [8] it was > 100 µM; in assay [9] it was 51.8 µM; in assay [10], > 100 µM.

Turning to `CCNC1(c2cccc(C)c2)OC(C)(C)c2cccc3cccc1c23` (stereo not given), the TGI in [1] is 97.4 µM; in assay [2] it was 37.2 µM; in assay [4] it was 29.9 µM; in assay [5] it was 38 µM; in [6], 48.9 µM; in assay [7], 37.5 µM. The TGI worked out at 48.1 µM in [8], 34 µM in assay [9] and 30.9 µM in assay [10].

Regarding `CN1CN(c2ccccc2)C2(CCN(CCCSc3ccccc3NC(=O)/C=C/c3ccccc3)CC2)C1=O`, the TGI in [1] is 8.76 µM; in assay [2], 12 µM; in [3], 6.09 µM; in [4], > 37 µM; in assay [5], 44.5 µM; in assay [6], 5.8 µM. The TGI was 6.61 µM in assay [7], > 26.5 µM in [8], 4.53 µM in assay [9] and > 87.3 µM in [10].

Consider `O=C1NC(Cc2c[nH]c3ccccc23)C(=O)N2C(C3CCCCC3)c3[nH]c4ccccc4c3C[C@@H]12` (stereo not given in full), for which the TGI in [1] is 22.1 µM; in assay [2], 40.8 µM; in assay [3] it was 44.4 µM; in assay [4] it was > 100 µM; in assay [5], 57.2 µM; in [6], 44.9 µM. Moreover, the TGI was 36.9 µM in assay [7], 55.8 µM in assay [8], 34.9 µM in assay [9] and > 100 µM in assay [10].

On to `CC(C)NC(=O)CN1CCN(C2=CC(=O)c3c(O)ccc(O)c3C2=O)CC1`, for which the TGI in assay [1] came out at 9.79 µM; in assay [2], 32.1 µM; in assay [3] it was 31.6 µM; in [4], 20.3 µM; in assay [5], 33.6 µM; in assay [6], 32.3 µM. For the same compound, the TGI in assay [7] is 28.4 µM; in [8], > 60.7 µM; in assay [9], 9.64 µM; in assay [10] it was 35.2 µM.

Take `Cc1cccc2c1Oc1ccccc1C2NC(=O)c1ccc([N+](=O)[O-])cc1` (stereo not given): the TGI in assay [1], in assay [2], in assay [3], in assay [4], in [5] and in assay [6] was > 100 µM throughout. Besides, the TGI in assay [7], in assay [8] and in assay [10] was > 100 µM each time.

On to `CC(C)(C)c1nc2c(o1)C(=O)c1ccccc1C2=O`, for which the TGI in [1] is 2.87 µM; in [2], 2.84 µM; in assay [3], 4.35 µM; in [4], 2.44 µM; in assay [5], 6.51 µM; in assay [6], 6.34 µM. Further, the TGI stood at 6.04 µM in assay [7], 6.77 µM in assay [8], 8.86 µM in assay [9] and 8.22 µM in assay [10].

As to `O=C(CC(=O)N1N=C(N2CCCCC2)CC1c1ccccc1)Nc1ccc(Cl)cc1` (stereo not given), the TGI in assay [1], in [2], in [3], in [4], in [5] and in assay [6] was > 100 µM each time. Moreover, the TGI in assay [7], in assay [8], in assay [9] and in assay [10] was > 100 µM in each case.

On to `C[C@]12CC[C@@H]3c4cc(OCC(F)(F)F)c(O)cc4C(=O)C[C@H]3[C@@H]1CC[C@@H]2O`, for which the TGI in assay [1] was > 100 µM; in assay [2], > 100 µM; in assay [3], > 52.3 µM; in [4] it was > 100 µM; in [5], > 100 µM; in assay [6], > 100 µM. The TGI in [7] was > 100 µM; in assay [8], > 100 µM; in assay [9], > 84.5 µM; in [10], > 100 µM.

For the compound `C[C@H](Nc1c(O)c2c(c(O)c1Cl)C(=O)C=CC2=O)C(=O)Nc1ccc([N+](=O)[O-])cc1`, the TGI in [1] was 2.7 µM; in assay [2], > 10 µM; in [3], 4.02 µM; in assay [4], 3.14 µM; in assay [5], > 10 µM; in [6], 6.74 µM. The TGI in assay [7] is 4.22 µM; in assay [8] it was > 10 µM; in assay [9], 2.97 µM; in assay [10], 3.64 µM.

On to `COc1cc(C2c3cc4c(cc3OC(Nc3ccc(C(=O)O)cc3)C2C)OCO4)cc(OC)c1OC` (stereo not given), for which the TGI in assay [1] was 12.2 µM; in [2], > 26.8 µM; in [3], > 100 µM; in assay [4], > 52.9 µM; in assay [5] it was > 100 µM; in [6], > 100 µM. For the same compound, the TGI in [7] was > 100 µM; in [8] it was 0.761 µM; in [9], 0.518 µM; in assay [10], > 47.5 µM.

For the compound `COCC1OC(OC2C3=C(C(C)C)CCC3(C)/C=C3\C(CCC3(O)COC)C(C)C2O)C(O)C2OC3OC12OC3(C)C1CO1` (stereo not given), the TGI was > 100 µM in [1]; 87.8 µM in assay [2]; > 100 µM in assay [3]; > 100 µM in assay [4]; > 100 µM in assay [5]; > 100 µM in assay [6]. In addition, the TGI is > 100 µM in assay [7], 99.7 µM in assay [8], > 100 µM in assay [9] and > 100 µM in assay [10].

As for `O=C(NNC(=S)Nc1ccccc1)c1ccccc1Nc1ccccc1C(=O)NNC(=S)Nc1ccccc1`, the TGI in [1] was 35.5 µM; in assay [2], 57.7 µM; in assay [3], > 100 µM; in [4], > 100 µM; in assay [5], 85.3 µM; in [6], 60.7 µM. For the same compound, the TGI in assay [7] was 32.3 µM; in assay [8], > 100 µM; in assay [9] it was 41.5 µM; in assay [10], > 100 µM.

`OC12COc3ccccc3C1Oc1ccccc1C2` (stereo not given): the TGI in [1], in [2], in [4], in assay [5], in assay [6] and in assay [7] was > 100 µM in each case. Besides, the TGI in [8], in assay [9] and in assay [10] was > 100 µM throughout.

Regarding `CC1(C)CC(=O)C2=C(C1)c1c(ccc3ccccc13)NC2c1cn(Cc2ccc(Cl)cc2)c2ccccc12` (stereo not given), the TGI in assay [1], in assay [2], in assay [4], in [5], in [6] and in assay [7] was > 100 µM throughout. Besides, the TGI in assay [8], in [9] and in assay [10] was > 100 µM throughout.

With `CCCc1cc(=O)oc2c3c(c4c(c12)OC(C)(C)C=C4)O[C@@H](C)[C@H](C)C3=O`, the TGI amounted to 24.2 µM in assay [1]; 29.6 µM in assay [2]; 25.7 µM in assay [3]; 24.6 µM in assay [5]; 35.5 µM in assay [6]; 28.4 µM in [7]. Also, the TGI stood at 73.9 µM in assay [8], 49.5 µM in [9] and 24.5 µM in assay [10].

As to `COC(=O)C1(Cc2ccc3c(c2)CCC3)Cc2ccc3c(c2C1O)CCC3` (stereo not given), the TGI in assay [1] came to 28.1 µM; in assay [2], 29.5 µM; in [3], 32.6 µM; in [4], 27.7 µM; in [5], 32 µM; in assay [6], 28 µM. Also, the figures for the TGI in assay [8], in assay [9] and in [10] were 29.4 µM, 25.6 µM and 37.3 µM, respectively.

On to `CC(OC(=O)NCn1cc(-c2ccccc2)nn1)c1ccccc1` (stereo not given), for which the TGI in assay [1], in assay [2], in assay [3], in assay [5], in [6] and in assay [7] was > 100 µM throughout. The TGI in [8], in assay [9] and in [10] was > 100 µM throughout.

In the case of `O=C1CCC[C@]2(CCC[C@@H](O)C2)N1`, the TGI in [1], in [2], in [4], in assay [5], in [6] and in [7] was > 100 µM throughout. Besides, the TGI in assay [8], in [9] and in assay [10] was > 100 µM each time.
